{"source": "patent US20240390340A1", "about": "(INCYTE CORPORATION, priority 2023, published 2024)", "data": [{"tested_on": "KRAS", "experiment": "KRAS inhibition, assay not specified (at least one assay described herein)", "settings": "Peak 1 versus Peak 2 of prep. LCMS; assay not stated", "values": [{"compound": "COc1cc(O[C@H]2C[C@H](c3cc4c(C(C)O)nc5c(F)c(-c6cccc(Cl)c6Cl)c(CCC#N)cc5c4n3[C@H]3[C@H]4CN[C@@H]3C4)N(C(=O)C3CC3)C2)ccn1", "note": "(single isomer, unassigned) [Example 2, Diastereomer 1 (Peak 1)]", "potency of the separated diastereoisomer (atropisomer) in words": "potent"}, {"compound": "[2H]C([2H])([2H])O[C@H]1CC[C@@H]1O[C@H]1C[C@H](c2cc3c(C)nc4c(F)c(-c5cccc(Cl)c5Cl)c(CCC#N)cc4c3n2[C@H]2[C@H]3CN[C@@H]2C3)N(C(=O)C2CC2)C1", "note": "(single isomer, unassigned) [Example 80, Diastereomer 1 (Peak 1)]", "potency of the separated diastereoisomer (atropisomer) in words": "potent"}, {"compound": "COC[C@@H]1[C@@H](Oc2cc(OC)ncc2F)C[C@H](c2cc3c([C@@H](C)O)nc4c(F)c(-c5cccc(Cl)c5Cl)c(CCC#N)cc4c3n2[C@H]2[C@H]3CN[C@@H]2C3)N1C(=O)C1CC1", "note": "(single isomer, unassigned)", "potency of the separated diastereoisomer (atropisomer) in words": "potent"}, {"compound": "Cc1nc2c(F)c(-c3cccc(Cl)c3Cl)c(CCC#N)cc2c2c1cc([C@H]1C[C@H](OC3(C)CCC3)CN1C(=O)C1CC1)n2[C@H]1[C@H]2CN[C@@H]1C2", "note": "(single isomer, unassigned) [Example 78, Diastereomer 1 (Peak 1)]", "potency of the separated diastereoisomer (atropisomer) in words": "potent"}, {"compound": "C[C@@H]1[C@@H](Oc2c(F)ccnc2Cl)C[C@H](c2cc3c([C@@H](C)O)nc4c(F)c(-c5cccc(Cl)c5Cl)c(CCC#N)cc4c3n2[C@H]2[C@H]3CN[C@@H]2C3)N1C(=O)C1CC1", "note": "(single isomer, unassigned) [Example 64, Diastereomer 1 (Peak 1)]", "potency of the separated diastereoisomer (atropisomer) in words": "potent"}, {"compound": "C[C@@H](O)c1nc2c(F)c(-c3cccc(Cl)c3Cl)c(CCC#N)cc2c2c1cc([C@H]1[C@H](O)[C@H](Oc3ccccn3)CN1C(=O)C1CC1)n2[C@H]1[C@H]2CN[C@@H]1C2", "note": "(single isomer, unassigned)", "potency of the separated diastereoisomer (atropisomer) in words": "potent"}, {"compound": "C[C@@H](O)c1nc2c(F)c(-c3cccc(Cl)c3Cl)c(CCC#N)cc2c2c1cc([C@H]1C[C@H](Oc3nccs3)CN1C(=O)C1CC1)n2[C@H]1[C@H]2CN[C@@H]1C2", "note": "(single isomer, unassigned) [Example 54, Diastereomer 1 (Peak 1)]", "potency of the separated diastereoisomer (atropisomer) in words": "potent"}, {"compound": "COc1ccc(O[C@H]2C[C@H](c3cc4c([C@@H](C)O)nc5c(F)c(-c6cccc(Cl)c6Cl)c(CCC#N)cc5c4n3[C@H]3[C@H]4CN[C@@H]3C4)N(C(=O)C3CC3)C2)cn1", "note": "(single isomer, unassigned) [Example 76, Diastereomer 1 (Peak 1)]", "potency of the separated diastereoisomer (atropisomer) in words": "potent"}, {"compound": "COc1cc(O[C@H]2C[C@H](c3cc4c([C@@H](C)O)nc5c(F)c(-c6cccc(Cl)c6Cl)c(CCC#N)cc5c4n3[C@H]3[C@H]4CN[C@@H]3C4)N(C(=O)C3(C)CC3)[C@@H]2C)c(F)cn1", "note": "(single isomer, unassigned) [Example 52, Diastereomer 1 (Peak 1)]", "potency of the separated diastereoisomer (atropisomer) in words": "potent"}, {"compound": "CC[C@@H]1[C@@H](Oc2cc(OC)ncc2F)C[C@H](c2cc3c([C@@H](C)O)nc4c(F)c(-c5cccc(Cl)c5Cl)c(CCC#N)cc4c3n2[C@H]2[C@H]3CN[C@@H]2C3)N1C(=O)C1CC1", "note": "(single isomer, unassigned) [Example 82, Diastereomer 1 (Peak 1)]", "potency of the separated diastereoisomer (atropisomer) in words": "potent"}, {"compound": "C[C@@H](O)c1nc2c(F)c(-c3cccc(Cl)c3Cl)c(CCC#N)cc2c2c1cc([C@H]1C[C@H](Oc3cc(C4CC4)on3)CN1C(=O)C1CC1)n2[C@H]1[C@H]2CN[C@@H]1C2", "note": "(single isomer, unassigned) [Example 77, Diastereomer 1 (Peak 1)]", "potency of the separated diastereoisomer (atropisomer) in words": "potent"}, {"compound": "COc1cc(O[C@H]2C[C@H](c3cc4c([C@@H](C)O)nc5c(F)c(-c6cccc(Cl)c6Cl)c(CCC#N)cc5c4n3[C@H]3[C@H]4CN[C@@H]3C4)N(C(=O)C3CC3)[C@@H]2C)c(F)cn1", "note": "(single isomer, unassigned) [Example 51, Diastereomer 1 (Peak 1)]", "potency of the separated diastereoisomer (atropisomer) in words": "potent"}, {"compound": "Cc1nc2c(F)c(-c3cccc(Cl)c3Cl)c(CCC#N)cc2c2c1cc([C@H]1C[C@H](OC(F)(F)c3ccccc3)CN1C(=O)C1CC1)n2[C@H]1[C@H]2CN[C@@H]1C2", "note": "(single isomer, unassigned) [Example 79, Diastereomer 1 (Peak 1)]", "potency of the separated diastereoisomer (atropisomer) in words": "potent"}]}]}
